Measurements published in PMC5592744 (Frontiers in Microbiology, 2017).

Key:
Assay type in all cases: biochemical
Conditions in all cases: 76 μM chalcone, FRET assay
V168A-SrtA = V168A-SrtA (Staphylococcus aureus, UniProt Q2FV99, V168A)
I182A-SrtA = I182A-SrtA (Staphylococcus aureus, UniProt Q2FV99, I182A)
R197A-SrtA = R197A-SrtA (Staphylococcus aureus, UniProt Q2FV99, R197A)

Measured: sensitivity of mutant SrtA to chalcone compared with WT-SrtA

O=C(/C=C/c1ccccc1)c1ccccc1 [chalcone]
significantly less sensitive: V168A-SrtA | I182A-SrtA | R197A-SrtA
